This note sets out measurements from patent US10583137B2, “Triazole DAGLα inhibitors” (THE SCRIPPS RESEARCH INSTITUTE, priority 2015, dated 2020).

Assay [1] deals with DSI at CA1 pyramidal neuron synapses. In words: depolarization-induced suppression of inhibition (DSI) in hippocampal slices. To be noted: 10 μM, bath application 30 min. The procedure: DSI was evaluated at CA1 pyramidal neuron synapses in hippocampal slices. DSI was induced in vehicle-treated hippocampal slices by applying a brief depolarization while evoking […] through stimulation of synaptic inhibitory inputs (FIG. 7C). Bath application of compound 14 (10 μM) and compound 17 (1 μM), but not compound 22 (10 μM), for 30 min before starting electrophysiological recordings blocked hippocampal DSI (FIGS. 7C and D).

The test system of assay [2] is LPS-induced neuroinflammatory responses (brain lipids, cytokines, body temperature). In words: LPS-induced neuroinflammatory responses in mouse brain. The format is in vivo. To be noted: mice. How it is done: The effects of pharmacological and genetic inactivation of DAGL activity on neuroinflammatory responses (brain prostaglandin and cytokine production) induced by high-dose lipopolysaccharide treatment was examined.
Mice were treated with compounds 14, 17, control compound 22 or vehicle (50 mg/kg, i.p) for 60-90 min, followed by LPS (20 mg/kg, i.p., 6 hr) or vehicle. The mice were subsequently sacrificed and their brain lipid and cytokine profiles analyzed. […] The LPS-induced elevations in both 2-AG and PGE2 were suppressed in compound 14 and compound 17 treated mice and DAGLα/mice, but not compound 22 treated mice. […] LPS-induced anapyrexia was blunted in compound 14 and 17 treated mice (FIG. 8E) and DAGLα−/− mice (FIG. 8F), but not compound 22 treated mice (FIG. 8E).

The test system of assay [3] is DSE at parallel fiber to Purkinje cell synapses. In words: depolarization-induced suppression of excitation (DSE) in acute cerebellar slices. To be noted: 10 μM. The source says:
Various forms of synaptic plasticity are regulated by 2-AG signaling, included depolarization-induced suppression of excitation (DSE) and inhibition (DSI). DSE was examined at parallel fiber (PF) to Purkinje cell (PC) synapses in acute cerebellar slices. A brief depolarization of PCs induced robust transient DSE at PF-PC synapses in vehicle treated cerebellar slices (FIG. 7A).

The target in assay [4] is DAGLα (hDAGLα-FLAG) (Homo sapiens (Human), UniProt Q9Y4D2). In words: competitive ABPP, membrane proteome of transfected HEK293T cells. The format is biochemical. To be noted: 0.8 μM (stated under the cell); read-out: DAGLα % inh. 0.8 μM. The gist of the method:
(§1)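 HEK293T membrane proteome (1 mg/ml) expressing FLAG-tagged human DAGLα or DAGLβ, treated 30 min at room temperature with compound, then 30 min with HT-01 or FP-Rh probe (1 μM). Bands separated by SDS-PAGE were normalized to DMSO for IC50 by variable-slope fit.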

The target of assay [5] is DAGLβ (hDAGLβ-FLAG) (Homo sapiens (Human), UniProt Q8NCG7). The description is as above. The format is biochemical. To be noted: 0.8 μM (stated under the cell); read-out: DAGLβ % inh. 0.8 μM. The gist of the method: as §1
Assay [6] concerns the target recombinant human DAGLα (Homo sapiens (Human), UniProt Q9Y4D2). In words: SAG substrate assay (in vitro inhibition of 2-AG biosynthesis), membrane lysates from HEK293T cells. To be noted: any dose tested. The format is biochemical. How it is done: DAGL modulators were tested for in vitro inhibition of 2-AG biosynthesis using a 1-stearoyl-2-arachidonoyl-sn-glycerol (SAG) substrate assay in DAGL-transfected HEK293 cells.
The SAG substrate assay, as described in Journal of lipid research 56(4):927-935, was performed using the following assay conditions: 0.2 U/mL glycerol kinase (GK), glycerol-3-phosphate oxidase (GPO) and horseradish peroxidase (HRP), 0.125 mM ATP, 10 μM Amplifu™Red, 5% DMSO in a total volume of 200 μL. The assay additionally contained SAG, a DAGL modulator, and membrane lysates from HEK293T cells expressing recombinant human DAGLα or DAGLβ.
Membranes were prepared from HEK293T cells transiently transfected with DAGLα or DAGLβ plasmids encoding for full length DAGLα or DAGLβ, respectively (Angewandte Chemie 52(46):12081-12085; Journal of Medicinal Chemistry 57(15):6610-6622). Briefly, one day prior to transfection, 10^7 cells were seeded in a 15 cm petri dish. The seeded cells were transfected by the addition of a 3:1 mixture of polyethyleneimine (60 μg) and plasmid DNA (20 μg) in 2 mL serum free medium. The medium was refreshed after 24 hr, and after 72 hr the cells were harvested by suspending them in 20 mL medium. The suspension was centrifuged for 10 min at 1000 rpm, and the supernatant was removed. The cell pellet was stored at −80° C. until use. Cell pellets were thawed on ice and suspended in lysis buffer A (20 mM HEPES, 2 mM DTT, 0.25 M sucrose, 1 mM MgCl2, lx protease inhibitor cocktail (Roche cOmplete EDTA free), 25 U/μL Benzonase). The suspension was homogenized by polytrone (3×7 sec) and incubated for 30 min on ice. The suspension was subjected to ultracentrifugation (100,000×g, 30 min, 4° C., Beckman Coulter, Type Ti70 rotor) to yield the cytosolic fraction in the supernatant and the membrane fraction as a pellet. The pellet was resuspended in lysis buffer B (20 mM HEPES, 2 mM DTT, lx protease inhibitor cocktail (Roche cOmplete EDTA free)) and the protein concentration determined with Quick Start Bradford assay (Biorad). The protein fractions were diluted to a total protein concentration of 1 mg/mL and stored in small aliquots at −80° C. until use.

The subject of assay [7] is brain 2-AG and other DAGL-regulated lipids. In words: brain lipid profiles of treated mice by LC-MS. Type of assay: in vivo, mouse. To be noted: 50 mg/kg i.p., 4 hr post-dosing. The procedure:
Brain lipid profiles of mice treated with compounds 14, 17 and control compound 22.
Mice were treated with 50 mg/kg compound (i.p.), followed by lipid profiling using LC-MS at a 4 hr post-dosing. […] This depletion of brain 2-AG in compound 14 and 17-treated mice was dose-dependent (data not shown) and was observed within 2 h after injection. […] The changes in each lipid species were dose-dependent and were absent in compound 22 treated mice (FIGS. 6C, E, G, I, and K).

[8] abbreviates: 50 mg/kg i.p. 60-90 min before LPS 20 mg/kg i.p., 6 hr.

recombinant human DAGLα, sequence (Q9Y4D2 whole entry): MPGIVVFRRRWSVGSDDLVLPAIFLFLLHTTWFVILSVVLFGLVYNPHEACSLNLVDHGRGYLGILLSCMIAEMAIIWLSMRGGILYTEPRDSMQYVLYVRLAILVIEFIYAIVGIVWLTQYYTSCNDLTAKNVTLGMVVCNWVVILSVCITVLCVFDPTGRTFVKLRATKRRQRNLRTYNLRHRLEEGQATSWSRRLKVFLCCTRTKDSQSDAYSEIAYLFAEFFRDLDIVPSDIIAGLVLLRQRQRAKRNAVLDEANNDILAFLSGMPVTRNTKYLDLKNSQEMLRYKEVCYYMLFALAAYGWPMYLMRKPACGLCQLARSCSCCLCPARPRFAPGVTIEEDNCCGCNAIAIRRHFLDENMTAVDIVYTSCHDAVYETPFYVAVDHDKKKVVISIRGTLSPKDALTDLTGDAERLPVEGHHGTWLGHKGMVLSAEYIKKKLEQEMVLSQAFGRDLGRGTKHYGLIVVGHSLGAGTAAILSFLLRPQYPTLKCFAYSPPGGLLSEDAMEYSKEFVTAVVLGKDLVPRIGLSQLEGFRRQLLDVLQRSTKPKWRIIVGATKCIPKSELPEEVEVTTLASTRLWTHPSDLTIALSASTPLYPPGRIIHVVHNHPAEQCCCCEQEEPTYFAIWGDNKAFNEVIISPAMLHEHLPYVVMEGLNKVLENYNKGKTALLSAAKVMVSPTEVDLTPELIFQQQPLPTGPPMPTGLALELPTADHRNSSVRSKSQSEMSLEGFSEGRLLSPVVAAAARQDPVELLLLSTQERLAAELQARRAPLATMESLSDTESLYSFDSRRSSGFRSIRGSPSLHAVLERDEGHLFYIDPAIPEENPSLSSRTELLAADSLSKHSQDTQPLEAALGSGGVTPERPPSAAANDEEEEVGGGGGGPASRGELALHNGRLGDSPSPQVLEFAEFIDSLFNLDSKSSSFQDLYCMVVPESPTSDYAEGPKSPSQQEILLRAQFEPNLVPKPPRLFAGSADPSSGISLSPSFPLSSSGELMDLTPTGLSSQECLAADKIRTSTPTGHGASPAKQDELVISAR
DAGLα (hDAGLα-FLAG), sequence (Q9Y4D2 whole entry): as above
DAGLβ (hDAGLβ-FLAG), sequence (Q8NCG7 whole entry): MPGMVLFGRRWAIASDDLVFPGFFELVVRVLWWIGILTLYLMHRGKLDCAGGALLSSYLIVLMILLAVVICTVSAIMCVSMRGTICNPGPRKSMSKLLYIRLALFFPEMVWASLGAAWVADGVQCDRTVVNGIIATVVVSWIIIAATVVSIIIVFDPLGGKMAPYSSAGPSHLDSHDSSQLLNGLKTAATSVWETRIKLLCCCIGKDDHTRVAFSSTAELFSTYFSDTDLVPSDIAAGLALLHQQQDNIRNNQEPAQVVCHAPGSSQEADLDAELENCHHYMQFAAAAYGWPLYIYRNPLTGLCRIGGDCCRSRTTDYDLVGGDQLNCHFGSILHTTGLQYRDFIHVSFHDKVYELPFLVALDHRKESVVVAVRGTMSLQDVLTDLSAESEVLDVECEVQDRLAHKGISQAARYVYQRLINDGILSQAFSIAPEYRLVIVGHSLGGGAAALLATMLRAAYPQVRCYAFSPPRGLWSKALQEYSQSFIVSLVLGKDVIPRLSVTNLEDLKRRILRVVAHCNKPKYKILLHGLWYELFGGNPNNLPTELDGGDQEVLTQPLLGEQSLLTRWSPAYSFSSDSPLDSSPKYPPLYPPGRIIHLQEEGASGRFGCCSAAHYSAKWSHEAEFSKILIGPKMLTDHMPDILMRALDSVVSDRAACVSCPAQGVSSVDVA

For the compound `CC(C)(C)OC(=O)N1CCN(C(=O)n2cc(-c3ccc(OC(F)(F)F)cc3)nn2)C(c2ccccc2)C1` (centres unmarked) [Compound 22, tert-butyl 3-phenyl-4-(4-(4-(trifluoromethoxy)phenyl)-1H-1,2,3-triazole-1-carbonyl)piperazine-1-carboxylate], in assay [1], the “effect on hippocampal DSI” value is listed as “not”. Also, in assay [2] (setting [8]), the “LPS-induced elevation in brain 2-AG” value is on record as “not” and the “LPS-induced elevation in brain PGE2” value is reported as “not”. In assay [2] (50 mg/kg i.p. before LPS), the LPS-induced anapyrexia entry is “not”. In assay [2] (50 mg/kg i.p., no LPS), the “brain AA under basal control conditions” value is “not” and the “brain PGE2 under basal control conditions” value is “not”. Also, in assay [3], the “effect on cerebellar DSE” value was “did not alter”. Moreover, in assay [4], the inhibition at 0.8 µM lay in the range of 0 to 25%. The inhibition at 0.8 µM in assay [5] lay within 0 to 25%. Moreover, the “inhibition of DAGLα” value in assay [6] is listed as “did not substantially inhibit”. In assay [7], the “brain 2-AG levels” value is given as “not”, the “brain AA” value is listed as “absent”, the “brain AEA” value is recorded as “absent” and the “brain C18:1/C20:4 DAG” value is recorded as “absent”. In addition, in assay [7], the “brain PGD2” value is recorded as “absent”, the “brain PGE2” value was “absent” and the “brain SAG” value is “absent”.
